Laboratory results reported in PubChem BioAssay (NCI).
Several values for one entry are separate records, joined by “and”; a condition that tells them apart may be missing. Equal entries are not always repeated.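 Dose response: 5 concentrations. Exposure: 48 h. Format: 96-well plates. Endpoint: linear interpolation; highest concentration if not reached. GI50 = concentration required for 50% inhibition of growth. At the TGI there is no net growth.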

How the values were obtained:
Assay in all cases: DTP human tumour cell line panel, 48 h
SR leukemia = system: SR leukemia
HCC-2998 colon = system: HCC-2998 colon
SN12C renal = system: SN12C renal
SF-268 CNS = system: SF-268 CNS
SK-MEL-2 melanoma = system: SK-MEL-2 melanoma
HS 578T breast = system: HS 578T breast
NCI/ADR-RES ovarian = system: NCI/ADR-RES ovarian
SNB-75 CNS = system: SNB-75 CNS
OVCAR-3 ovarian = system: OVCAR-3 ovarian
MALME-3M melanoma = system: MALME-3M melanoma

| Structure (SMILES) | GI50 (SR leukemia) | TGI (SR leukemia) | GI50 (HCC-2998 colon) | TGI (HCC-2998 colon) | GI50 (SN12C renal) | TGI (SN12C renal) | GI50 (SF-268 CNS) | TGI (SF-268 CNS) | GI50 (SK-MEL-2 melanoma) | TGI (SK-MEL-2 melanoma) | GI50 (HS 578T breast) | TGI (HS 578T breast) | GI50 (NCI/ADR-RES ovarian) | TGI (NCI/ADR-RES ovarian) | GI50 (SNB-75 CNS) | TGI (SNB-75 CNS) | GI50 (OVCAR-3 ovarian) | TGI (OVCAR-3 ovarian) | GI50 (MALME-3M melanoma) | TGI (MALME-3M melanoma) |
| --- | --- | --- | --- | --- | --- | --- | --- | --- | --- | --- | --- | --- | --- | --- | --- | --- | --- | --- | --- | --- |
| COC1=CC(c2ccc[nH]2)=N/C1=C\c1[nH]c(C)c(C(=O)CCC(=O)Oc2ccc3c(c2)CCC2C3CC[C@]3(C)[C@@H](O)CC[C@@H]23)c1C (stereo partly drawn) | 0.643 µM | 5.1 µM | 4.05 µM | > 100 µM | 5.06 µM | > 100 µM | 2.91 µM | > 100 µM | 3.52 µM | 17.8 µM | 3.17 µM | > 100 µM | 4.58 µM | > 100 µM | 4.56 µM | 58.4 µM | 2.96 µM | 27.9 µM | – | – |
| C[C@H](c1ccc(F)cc1CCCC(=O)O)N(c1cc(F)ccc1F)S(=O)(=O)c1ccc(Cl)cc1 | 30.4 µM | 98.1 µM | 20.9 µM | 59.4 µM | 32.2 µM | > 100 µM | 34.5 µM | > 100 µM | 19.7 µM | 41.7 µM | 20 µM | > 85 µM | 30.6 µM | > 100 µM | 29.4 µM | > 91.3 µM | 19.6 µM | 44 µM | 23.5 µM | 93.8 µM |
| OCc1ccc(-c2csc(-c3ccc(CO)o3)c2)o1 | 26.8 µM | > 100 µM | 40.4 µM | > 100 µM | 88.7 µM | > 100 µM | 71.9 µM | > 100 µM | 40.9 µM | > 100 µM | 70.6 µM | > 100 µM | 26.9 µM | > 100 µM | > 55.3 µM | > 100 µM | 5.86 µM | > 100 µM | 35.5 µM | > 100 µM |
| O=C(Cn1c(C(=O)c2ccc(Cl)cc2)nc(-c2ccc(Cl)cc2)c1-c1ccc(Cl)cc1)c1ccccc1 | > 100 µM | > 100 µM | > 100 µM | > 100 µM | > 100 µM | > 100 µM | > 100 µM | > 100 µM | > 100 µM | > 100 µM | > 100 µM | > 100 µM | > 100 µM | > 100 µM | > 100 µM | > 100 µM | > 100 µM | > 100 µM | > 100 µM | > 100 µM |
| Cc1ccccc1C1=C(c2cn(C)c3ccccc23)C(=O)NC1=O | 7.78 µM | > 25 µM | > 25 µM | > 25 µM | > 22.7 µM | > 25 µM | > 25 µM | > 25 µM | 24.9 µM | > 25 µM | 10 µM | > 25 µM | 24.3 µM | > 25 µM | 0.644 µM | > 25 µM | 10.8 µM | > 25 µM | 23.9 µM | > 25 µM |
| O=C(c1ccccc1)C(Cl)C(Cl)c1ccccc1 (stereo not drawn) | 0.381 µM | 7.65 µM | 2 µM | 3.56 µM | 2.1 µM | 5.95 µM | 4.71 µM | 17.3 µM | 3.55 µM | 9.33 µM | 9.28 µM | 45.3 µM | 2.44 µM | 7.35 µM | 11.2 µM | 23.3 µM | 2.03 µM | 4.57 µM | – | – |
| COc1ccc(/C=C/C(=O)c2c(O)ccc3c(C)c(C(=O)O)oc23)cc1 | 19.2 µM | 64.4 µM | 36.7 µM | > 100 µM | 27.5 µM | > 100 µM | 42.3 µM | > 100 µM | – | – | 39.7 µM | > 100 µM | 61.9 µM | > 100 µM | – | – | 58.3 µM | > 100 µM | 94.6 µM | > 100 µM |
| CCCCCCCCCCCCCC[n+]1ccccc1 | 0.499 µM | 2.94 µM | 0.877 µM | 2.31 µM | 0.926 µM | 2.5 µM | – | – | 0.592 µM | 2.19 µM | 1.59 µM | 5.13 µM | 8.65 µM | 46.8 µM | 0.523 µM | 2.22 µM | 0.674 µM | 2.26 µM | 0.401 µM | 1.59 µM |
| O=C(CN1CCCC1=O)CS(=O)(=O)c1ccccc1 | – | > 100 µM | – | > 100 µM | – | – | – | > 100 µM | – | > 100 µM | – | > 100 µM | – | > 100 µM | – | > 100 µM | – | > 100 µM | – | > 100 µM |
| CS(=O)(=O)CCNCc1ccc(-c2ccc3ncnc(Nc4ccc(OCc5cccc(F)c5)c(Cl)c4)c3c2)o1 | 2.75 µM and 2.57 µM and 2.28 µM | > 10 µM and 5.8 µM and 11.3 µM | > 10 µM and 4.1 µM and 8.86 µM | > 10 µM and 17.8 µM and 24.2 µM | > 10 µM and 9.1 µM | > 10 µM and > 100 µM and 36.2 µM | > 10 µM and 5.18 µM and 11.6 µM | > 10 µM and > 100 µM and 43.4 µM | > 10 µM and 2.46 µM and 5.9 µM | > 10 µM and 8.59 µM and 23.1 µM | > 10 µM and 8.49 µM and 8.64 µM | > 10 µM and > 53.7 µM and 57.6 µM | 5.52 µM and 2.9 µM and 4.32 µM | > 10 µM and > 100 µM and 50.3 µM | > 10 µM and 4.33 µM and 8.75 µM | > 10 µM and 35.5 µM and 44.2 µM | > 10 µM and 3.54 µM and 8.01 µM | > 10 µM and 52.6 µM and 24.2 µM | > 10 µM and 1.66 µM and 2.67 µM | > 10 µM and 3.23 µM and 6.56 µM |
| COc1cc(OC)cc(Oc2cnc3cc(N)cc(N)c3n2)c1 | 11.3 µM | 26.1 µM | 14.6 µM | 28.8 µM | 15.8 µM | 29.3 µM | 15.5 µM | 31.9 µM | 19.7 µM | 43.3 µM | 24.7 µM | 87.8 µM | 16.1 µM | 43.5 µM | 3.92 µM | 18.6 µM | 1.83 µM | 10.5 µM | 10.7 µM | 22.5 µM |
| CN1CC=C(c2cc(NC(=O)Nc3ccc(Oc4ccnc(NC(=O)C5CC5)c4)c(F)c3)cc(C(F)(F)F)c2)CC1 | 0.152 µM | 0.863 µM | 0.281 µM | 1.97 µM | 0.159 µM | 1.27 µM | 0.206 µM | 1.41 µM | 1.13 µM | 2.26 µM | 0.982 µM | 3.09 µM | 2.71 µM | 13.4 µM | 1.53 µM | 2.95 µM | 0.234 µM | 4.93 µM | 0.289 µM | 1.13 µM |
| COc1cc(-c2cc3ncccc3c3nc(OCCN(C)C)c4cccnc4c23)cc(OC)c1OC | 0.244 µM | 2.07 µM | 0.727 µM | 3.1 µM | 0.581 µM | 3.09 µM | 0.637 µM | 11 µM | 0.744 µM | 3.71 µM | 1.5 µM | 14.9 µM | 0.383 µM | 2.1 µM | 0.414 µM | 2.2 µM | 0.64 µM | 3.09 µM | 0.431 µM | 2.5 µM |
| Cc1ccc(F)c(NC(=O)Nc2ccc(-c3cccc4[nH]nc(N)c34)cc2)c1 | 2.62 µM and 1.87 µM | 8.37 µM and 5.45 µM | 2.52 µM and 2.79 µM | 6.67 µM and 7.81 µM | 3.16 µM and 3.54 µM | 13 µM and > 10 µM | 2.92 µM and 3.25 µM | 11.2 µM and > 10 µM | 2.67 µM and 2.87 µM | 5.89 µM and 9.2 µM | 2.5 µM and 2.91 µM | 12.6 µM and > 10 µM | 3.4 µM and 3.81 µM | 18.6 µM and > 10 µM | 4.72 µM and 3.54 µM | 15.3 µM and > 10 µM | 2.85 µM and 3.15 µM | 7.76 µM and > 10 µM | 4.24 µM and 2.64 µM | 16.4 µM and 7.36 µM |
| CC1(C)CC(=O)C=C(/C=C/Sc2c(Cl)c(Cl)nc(Cl)c2Cl)C1 | 3.89 µM | > 100 µM | 9.46 µM | 21.3 µM | 4.56 µM | 16.3 µM | 13 µM | 32.4 µM | 70.2 µM | > 100 µM | 25.8 µM | 74.3 µM | 11.3 µM | 25.6 µM | 15.9 µM | 31.5 µM | 2.6 µM | 8.29 µM | – | – |
| COC(=O)C12CCC(C)(C)CC1C1=CCC3C4(C)CC(O)C(O)C(C)(C(=O)OC)C4CCC3(C)C1(CO)CC2 (stereo not drawn) | – | 31.4 µM | – | 27.2 µM | – | 33.2 µM | – | 44.9 µM | – | 28.2 µM | – | 28.2 µM | – | 29.2 µM | – | 25.3 µM | – | 31.5 µM | – | – |
| COC(=O)c1cc(NC(=O)c2cc(NC(=O)c3cc([N+](=O)[O-])n(C)c3)cn2C)cn1C | 39.3 µM | > 100 µM | 4.26 µM | 38.2 µM | > 100 µM | > 100 µM | > 100 µM | > 100 µM | > 100 µM | > 100 µM | > 100 µM | > 100 µM | > 100 µM | > 100 µM | – | – | > 100 µM | > 100 µM | – | – |
| O=C([O][Hg][c]1ccccc1)c1ccccc1 | 0.382 µM | 2.35 µM | 2 µM | 3.82 µM | – | – | 1.89 µM | 4.78 µM | 1.35 µM | 2.91 µM | 1.1 µM | 5.87 µM | 3.32 µM | > 27.4 µM | 1.23 µM | 3.63 µM | 0.298 µM | 0.843 µM | 1.77 µM | 3.39 µM |
| Cc1ccc([P+](Cc2ccccc2)(c2ccccc2)c2ccccc2)cc1 | 2.66 µM | 16.5 µM | 2.66 µM | 25.1 µM | 2.66 µM | 13.1 µM | 3.66 µM | > 100 µM | 2.35 µM | 5.63 µM | 3.19 µM | 83.4 µM | 47.8 µM | > 100 µM | 2.21 µM | 9.71 µM | 1.52 µM | 65.8 µM | – | – |
| COc1cc2c(c(O)c1Cl)C(=O)c1c(O)cc(C[C@H](C)O)cc1[C@H]2[C@H]1c2cc(C[C@H](C)O)cc(O)c2C(=O)c2c1cc(OC)c(Cl)c2O | – | 75 µM and > 100 µM | – | 75 µM and > 100 µM | – | 75 µM and > 100 µM | 3.36 µM and 31.5 µM | 75 µM and > 100 µM | – | – | – | 75 µM and 64.9 µM | 54.8 µM and 58.8 µM | 75 µM and > 100 µM | – | 16.4 µM and 70.3 µM | – | – | – | 5.27 µM and 47.3 µM |
